Assay results from the NIST ThermoML archive (doi:10.1016/j.tca.2016.11.008).
± gives the expanded uncertainty stated by the source.

Assay: xn = mol fraction of the nth substance listed
Conditions: 101.3 kPa, Liquid, Vibrating tube method

Row | SMILES | mass density (303.15 K, x1 = 0.667) [kg/m3] | mass density (313.15 K, x1 = 0.667) [kg/m3] | mass density (323.15 K, x1 = 0.667) [kg/m3] | mass density (333.15 K, x1 = 0.667) [kg/m3] | mass density (343.15 K, x1 = 0.667) [kg/m3] | mass density (353.15 K, x1 = 0.667) [kg/m3] | mass density (303.15 K, x2 = 0.333) [kg/m3] | mass density (313.15 K, x2 = 0.333) [kg/m3] | mass density (323.15 K, x2 = 0.333) [kg/m3] | mass density (333.15 K, x2 = 0.333) [kg/m3] | mass density (343.15 K, x2 = 0.333) [kg/m3] | mass density (353.15 K, x2 = 0.333) [kg/m3]
1 | C[N+](C)(C)CCO.[Cl-] [choline chloride] + O=C[C@H](O)[C@@H](O)[C@H](O)[C@H](O)CO | 1239.7 ± 3.4 | 1234.6 ± 3.3 | 1229.4 ± 3.3 | 1224.3 ± 3.3 | 1219.2 ± 3.3 | 1214 ± 3.3 |  |  |  |  |  | 
2 | OCCOCCOCCO [triethylene glycol] + C[N+](C)(C)CCO.[Cl-] |  |  |  |  |  |  | 1125.4 ± 3.1 | 1118.9 ± 3.1 | 1112.5 ± 3 | 1106.2 ± 3 | 1099.8 ± 3 | 1093.5 ± 3
